This is an account of results in patent US4414225A, “Azepine derivatives and their anti-thrombotic compositions and methods” (Dr. Karl Thomae Gesellschaft mit beschrankter Haftung, priority 1981, dated 1983).

In data set [1] the test system is thrombocytes of healthy human test subjects. As to the kind of experiment: Born test: collagen-induced thrombocyte aggregation, with and without PGI2 (in vitro). The settings on record: n = 4; for inhibition at 100 µM: Homo sapiens; for mm height of curve (Born test): control 129. Type of data set: cell-based. The procedure: (§1) 2. Antithrombotic Activity: (a) The thrombocytes of healthy human test subjects were incubated for 10 minutes at 37° C. with the test substance (final concentration: 1×10^-4 mol/l). Then, aggregation was initiated with collagen in the Born test in the usual way. Shortly before aggregation was initiated, a small quantity of supernatant liquid containing prostacycline, which was obtained from rings of aorta placed in the TRIS buffer, was added to the test sample. The quantity of supernatant liquid containing prostacycline was selected so that on its own it had little or no inhibiting effect. The sample incubated with the substance reacted with PGI2 to give an inhibition of aggregation which was more than additive.

For data set [2] the test system is unchanged. As to the kind of experiment: Adenosine-potentiating effect in the Born Test (thrombocyte aggregation). Type of data set: cell-based. The settings on record: n = 4; for mm height of curve (Born test): control 114.
For data set [3], the system named is thrombocyte aggregation. Put plainly: Prostacycline-reinforcing effect after oral administration in animals (Born Test on blood sample). Type of data set: in vivo, rat. The procedure:
as §1, with “(a)” for “2. Antithrombotic Activity: (a)”
(c) Prostacycline-reinforcing effect after oral administration in animals:
Rats weighing 450 gm were given the compound orally at a dose of 20 mg/kg; then, after one hour, a blood sample was taken and the Born Test was carried out as described above.

Data set [4] is described as follows: Acute toxicity. Type of data set: in vivo. The settings on record: maximum doses used (50 mg/kg per os).
Data set [5] has as its system hyperlipemic rat. As to the kind of experiment: Cholesterol-reducing effect: test on the hyperlipemic rat. It counts as in vivo. The following applies: 50 mgm/kg by esophageal tube on two successive days, serum 24 hours after final administration. As to the method:
(§2) 1. Cholesterol-reducing effect
(a) Test on the hyperlipemic rat: Literatur: P. E. Schurr et al., Atherosclerosis Drug Discovery (1976), published by C. E. Day; Plenum, New York, page 215.
Young male rats with an average body weight of 100 gm were made hypercholesterolemic by feeding them for 4 days on a diet consisting of 10% coconut oil, 1.5% cholesterol, 0.5% cholic acid, 0.2% choline chloride and 15% sucrose. While continuing with the diet, the test compound was administered in a methyl cellulose suspension by esophageal tube on two successive days. The animals were then made to fast overnight and 24 hours after the final administration of the test compound a blood sample was taken in order to obtain serum.
In the serum, the total cholesterol was determined enzymatically (Boehringer Mannheim Test Combination 126 039) and the β-lipoproteinswere determined by nephelometry, after precipitation with Ca^++ and heparin, in the Autoanalyzer. The percentage reduction was calculated by comparison with a control group: […]

Data set [6] concerns normolipemic rat. Put plainly: Cholesterol-reducing effect: test on the normolipemic rat. The following applies: 1.1 mg/kg (A) or 20.0 mg/kg (B), by esophageal tube twice with interval of 20 hours, serum after 28 and 44 hours. Type of data set: in vivo. The procedure: as §2
(b) Test on the normolipemic rat:
Male normolipemic rats with an average body weights of 250 to 300 gm were given the test compound by esophageal tube twice with an interval of 20 hours. At the start of the test, the animals were deprived of food but had free access to drinking water. The serum cholesterol levels were determined enzymatically (Boehringer Mannheim Test Combination 126.039) after 28 and 44 hours. The percentage reduction was calculated in comparison with a control group: […]

Setting [7] is: PRP + compound C (1×10^-4 mol/l) + PGI2, collagen.
The mark [8] stands for this setting: PRP + compound C alone, 1×10^-4 mol/l, collagen.
Where [9] appears, read: PRP + compound C alone (1 × 10^-4).

On to `Cl.Clc1ccccc1CN1CCc2ccsc2CC1` [C, 6-(2-Chlorobenzyl)-5,6,7,8-tetrahydro-4H-thieno[2,3-d]azepine hydrochloride], for which the inhibition at 100 µM in data set [1] (setting [7]) worked out at 69%; in data set [1] (setting [8]), 20.7%. Also, the “mm height of curve (Born test)” value amounted to 38 mm in data set [1] (setting [7]), 101 mm in data set [1] (setting [8]), 44 mm in data set [2] (PRP + compound C + adenosine) and 75 mm in data set [2] (setting [9]). Besides, the “% inhibition of thrombocyte aggregation” value amounted to 61% in data set [2] (PRP + compound C + adenosine) and 33% in data set [2] (setting [9]). In addition, the inhibition of aggregation in data set [3] (rats treated with 20 mg/kg per os of compound C, blood sample after one hour, without PGI2, averages from three sets of tests on four animals) was determined as 4%; in data set [3] (rats treated with compound C, 20 mg/kg per os, blood sample after one hour, + PGI2), 100%. The toxic side effects entry in data set [4] was “no toxic side effects were observed”.

Regarding `CCCCCCCCCCCCN1CCc2cc(C(=O)[O-])sc2CC1.[Na+]`, in data set [5], the “Percentage reduction compared with controls: Cholesterol in the serum” value was -21% and the “Percentage reduction compared with controls: β-lipoproteins in the serum” value is -51%. For the same molecule, the “Percentage reduction compared with control: Total cholesterol in the serum” value in data set [6] is on record as -20%. The toxic side effects entry in data set [4] is listed as “no toxic side effects were observed”.

For `Nc1ncnc2c1ncn2[C@@H]1O[C@H](CO)[C@@H](O)[C@H]1O` [adenosine, reference compound], in data set [2] (PRP + adenosine alone), the “% inhibition of thrombocyte aggregation” value came to 20% and the “mm height of curve (Born test)” value worked out at 91 mm.

On to `Cl.O=C(O)c1cc2c(s1)CCN(Cc1ccccc1)CC2` [A, 6-Benzyl-5,6,7,8-tetrahydro-4H-thieno[2,3-d]azepine-2-carboxylic acid hydrochloride], for which the “Percentage reduction compared with control: Total cholesterol in the serum” value in data set [6] was -26%. In addition, the toxic side effects result in data set [4] was “no toxic side effects were observed”.

Consider PGI2 [reference compound], for which, in data set [1] (PRP + PGI2 alone, collagen), the “% inhibition of thrombocyte aggregation” value stood at 30% and the “mm height of curve (Born test)” value was found to be 90 mm. In addition, the inhibition of aggregation in data set [3] (plasma of control animals + PGI2) is on record as 20%.
